Test results published in paper PMC11195807, “Development of a multi-targeted chemotherapeutic approach based on G-quadruplex stabilisation and carbonic anhydrase inhibition” (Journal of Enzyme Inhibition and Medicinal Chemistry, 2024).
Where “and” joins values, the source holds several entries; their conditions need not be identical. Identical values can stand only once.

Key:
c-Kit1 = test: CD melting experiments, c-Kit1 GQ; type: binding; conditions: for ΔT1/2 c-Kit1: 2 molar equiv compound, T1/2 of DNA alone 55.0 °C; for ΔΔT1/2 c-Kit1: ΔT1/2 of compound minus ΔT1/2 of berberine, 2 molar equiv
Tel23 = test: CD melting experiments, Tel23 GQ; type: binding, human; conditions: for ΔT1/2 Tel23: 2 molar equiv compound, T1/2 of DNA alone 53.5 °C; for ΔΔT1/2 Tel23: ΔT1/2 of compound minus ΔT1/2 of berberine, 2 molar equiv
c-Myc = test: CD melting experiments, c-Myc GQ; type: binding; conditions: for ΔT1/2 c-Myc: 1 molar equiv compound, T1/2 of DNA alone 70.0 °C; for ΔΔT1/2 c-Myc: ΔT1/2 of compound minus ΔT1/2 of berberine, 1 molar equiv
hCA IX = biological target: T1, hCA IX (Homo sapiens, UniProt Q16790); test: stopped-flow CO2 hydrase assay, hCA IX; type: biochemical; conditions: for Ki: mean ± SEM of three assays; for Selectivity index (SI) I/IX: hCA IX over hCA I; for Selectivity index (SI) II/IX: hCA IX over hCA II
T1 construct: made in house
Text: An Applied Photophysics stopped-flow instrument has been used for assaying the CA-catalysed CO2 hydration activity, as reported earlier. […] All hCA isoforms were recombinant proteins, being obtained in-house as reported earlier.

Hairpin = test: CD melting experiments, hairpin DNA duplex; conditions: 2 molar equiv compound, T1/2 of DNA alone 66.0 °C
Protocol: To evaluate the possible binding and stabilisation of double-stranded DNA, a 27-nt long hairpin-forming sequence (Hairpin) was employed.
In particular, the following DNA sequences were synthesised and employed for the experiments: d([sequence]) (c-Kit1), d([sequence]) (c-Myc), d([sequence]) (Tel23), and d([sequence]) (Hairpin). Oligonucleotides were dissolved in the proper buffer and their concentration was measured by UV absorption at 90 °C, as previously reported[80]^,[81]. To achieve the correct folding of the sequences, the DNA solutions were heated in a water bath at 90 °C for 5 min, and then allowed to cool slowly to room temperature overnight. Then, DNA samples were stored at 4 °C for 24 h, before data acquisition.
The samples were prepared by dissolving the oligonucleotides in 5 mM KH2PO4/K2HPO4 buffer (pH 7.0) containing 20 mM KCl (or LiCl in the case of c-Myc because of its high thermal stability). DNA concentrations of 20 µM for GQs and 30 µM for Hairpin were used. For each compound, a 10 mM stock solution in 100% DMSO was prepared. […] CD spectra were acquired at 20 and 100 °C, in the 230–320 nm wavelength range, averaged over three scans and subtracted of the buffer baseline. The scanning speed was set to 100 nm/min, with a 0.5 s response time, and 1 nm bandwidth. CD melting experiments were carried out in the 20–100 °C temperature range, with 1 °C/min heating rate, by following changes in the CD signal at the wavelengths of the maximum CD intensity (i.e. 263 nm for c-Kit1 and c-Myc, and 290 nm for Tel23). As for Hairpin, CD melting curves were recorded by following the changes in the CD signal at 252 nm (the wavelength of the minimum CD intensity). CD melting curves were normalised between 0 and 1. […] The ΔT1/2 values correspond to the difference in the T1/2 values of the nucleic acid structures in the presence and absence of the compounds. All experiments were performed in duplicate, and the reported values are the mean of the two measurements.

GQ structures = test: BG4 immunofluorescence of GQ foci, HeLa cells in normoxia; type: cell-based; conditions: 24 h, 35.0 µM S-4,0, 40.0 µM C-4,2, 37.5 µM C-5,2, 2 µM RHPS4, over DMSO
Text: After measuring the viability of HeLa cells upon treatment with the newly synthesised MTDLs mentioned above, we probed the capability of the three most cytotoxic ones (S-4,0, C-4,2, and C-5,2) to affect the formation of GQ structures by immunofluorescence (IF) microscopy, using the BG4 antibody that selectively recognises the GQ structures. As it can be noticed in Figure 6, the fluorescence intensity of the total number of GQ foci increased by around 30% after treatment with both the coumarin derivative C-4,2 and the reference GQ binder RHPS4, whereas it was not affected by S-4,0 and C-5,2. […] On the contrary, the levels of GQ structures were influenced neither by the treatment with the sulphonamide S-4,0 nor by the coumarin C-5,2, despite their ability to thermally stabilise some GQ-forming sequences in vitro.
Figure 6. (A) Representative fields showing G4 foci formation detected by immunofluorescence in HeLa cells treated for 24 h with 35.0 µM S-4,0, 40.0 µM C-4,2, and 37.5 µM C-5,2 or an equivalent amount of vehicle (0.1% DMSO). As a positive control, cells were treated with 2 µM RHPS4 (a well-established GQ ligand)[68] for 24 h. Scale bar: 10 µm. Upper panels: the merged channels of BG4-stained GQ structures (magenta) and Hoechst-counterstained nuclei (grey) are reported. Lower panels: enlargements from the pictures in the upper panels. (B) Quantitative analysis of the fluorescence intensity of the total number of GQ foci. An average of 50 cells were screened for each condition and the results are expressed as a fold change of fluorescence intensity (anti-GQ signal) over the negative control (DMSO). Histograms show the mean ± SD of three independent experiments. The statistical significance was calculated using a one-way ANOVA test on GraphPad Prism 8.0.2 (ns: not significant, **: p < 0.01).
For the IF experiments in the presence of normal oxygen levels, HeLa cells were seeded on sterile coverslips, in a 24-well plate, at a density of 90,000 cells per well, and incubated overnight. Then, cells were treated with a sublethal concentration of each investigated MTDL or an equivalent amount of vehicle (0.1% DMSO), for 24 h. As positive control, cells were exposed for 24 h to 2 µM RHPS4. As regards the IF experiments under hypoxic conditions, HeLa were seeded on sterile coverslips, in a 24-well plate, at a density of 50,000 cells per well, and incubated overnight. […] From there, the cellular and nuclear foci were segmented, and their number or fluorescence intensity was quantified by using the Image Analysis package of ZEISS ZEN 3.1 software.

[1] = coumarins, inhibitor-enzyme incubation 6 h
[2] = sulphonamides, inhibitor-enzyme incubation 15 min

Structure (SMILES) | Ki (hCA IX; [1]) | Selectivity index (SI) I/IX (hCA IX) | Selectivity index (SI) II/IX (hCA IX) | Ki (hCA IX; [2]) | ΔT1/2 c-Kit1 (c-Kit1) | ΔΔT1/2 c-Kit1 (c-Kit1) | ΔT1/2 Tel23 (Tel23) | ΔΔT1/2 Tel23 (Tel23) | ΔT1/2 c-Myc (c-Myc) | ΔΔT1/2 c-Myc (c-Myc) | ΔT1/2 Hairpin (Hairpin) | ΔΔT1/2 c-Kit1 (c-Kit1; listed as S-5,0) | ΔΔT1/2 c-Kit1 (c-Kit1; listed as S-2,0) | ΔΔT1/2 c-Myc (c-Myc; listed as S-2,0) | increase of fluorescence intensity of the total number of GQ foci (GQ structures) | ΔΔT1/2 c-Myc (c-Myc; listed as C-5,2) | ΔΔT1/2 c-Kit1 (c-Kit1; listed as S-4,0) | ΔΔT1/2 c-Myc (c-Myc; listed as S-4,0)
COc1ccc2cc3[n+](cc2c1OCCn1cc(-c2ccc(S(N)(=O)=O)cc2)nn1)CCc1cc2c(cc1-3)OCO2 [Compound 26, 10-Methoxy-9–(2-(4–(4-sulfamoylphenyl)-1H-1,2,3-triazol-1-yl)ethoxy)-5,6-dihydro-[1,3]dioxolo[4,5-g]isoquinolino[3,2-a]isoquinolin-7-ium hexafluorophosphate] | – | 414.6 | 42.4 | 1.1 nM and 1.4 nM | 22.0 °C | 9.0 °C | 10.0 °C | 0.5 °C | – | >13.0 °C | -0.5 °C | – | ≥ 6.0 °C | > 13.0 °C | – | – | – | –
COc1ccc2cc3[n+](cc2c1OCCCCn1cc(COc2ccc4ccc(=O)oc4c2)nn1)CCc1cc2c(cc1-3)OCO2 [Compound 37, 10-Methoxy-9–(4-(4-(((2-oxo-2H-chromen-7-yl)oxy)methyl)-1H-1,2,3-triazol-1-yl)butoxy)-5,6-dihydro-[1,3]dioxolo[4,5-g]isoquinolino[3,2-a]isoquinolin-7-ium hexafluorophosphate] | 17.3 ± 1.2 nM | > 578.0 | > 578.0 | – | 17.5 °C | 4.5 °C | 9.0 °C | −0.5 °C | 13.0 °C | 1.0 °C | +0.5 °C | – | – | – | around 30% | – | – | –
COc1ccc2cc3[n+](cc2c1OCCCCn1cc(-c2ccc(S(N)(=O)=O)cc2)nn1)CCc1cc2c(cc1-3)OCO2 [Compound 30, 10-Methoxy-9–(4–(4-(4-sulfamoylphenyl)-1H-1,2,3-triazol-1-yl)butoxy)-5,6-dihydro-[1,3]dioxolo[4,5-g]isoquinolino[3,2-a]isoquinolin-7-ium hexafluorophosphate] | – | 1209 | 112.4 | 0.49 ± 0.03 nM | 20.5 °C | 7.5 °C | 9.0 °C | −0.5 °C | – | >13.0 °C | -1.0 °C | – | – | – | not affected | – | ≥ 6.0 °C | > 13.0 °C

Second part, led by results:

Ki (hCA IX; [1]) | Selectivity index (SI) I/IX (hCA IX) | Selectivity index (SI) II/IX (hCA IX) | Ki (hCA IX; [2]) | Structure (SMILES) | ΔT1/2 c-Kit1 (c-Kit1) | ΔΔT1/2 c-Kit1 (c-Kit1) | ΔT1/2 Tel23 (Tel23) | ΔΔT1/2 Tel23 (Tel23) | ΔT1/2 c-Myc (c-Myc) | ΔΔT1/2 c-Myc (c-Myc) | ΔT1/2 Hairpin (Hairpin) | ΔΔT1/2 c-Kit1 (c-Kit1; listed as S-5,0) | ΔΔT1/2 c-Kit1 (c-Kit1; listed as S-2,0) | ΔΔT1/2 c-Myc (c-Myc; listed as S-2,0) | increase of fluorescence intensity of the total number of GQ foci (GQ structures) | ΔΔT1/2 c-Myc (c-Myc; listed as C-5,2) | ΔΔT1/2 c-Kit1 (c-Kit1; listed as S-4,0) | ΔΔT1/2 c-Myc (c-Myc; listed as S-4,0)
66 ± 4.3 nM | – | – | – | COc1ccc2cc3[n+](cc2c1OCCCn1cc(COc2ccc4ccc(=O)oc4c2)nn1)CCc1cc2c(cc1-3)OCO2 [Compound 34, 10-Methoxy-9–(3-(4-(((2-oxo-2H-chromen-7-yl)oxy)methyl)-1H-1,2,3-triazol-1-yl)propoxy)-5,6-dihydro-[1,3]dioxolo[4,5-g]isoquinolino[3,2-a]isoquinolin-7-ium hexafluorophosphate] | 20.0 °C | 7.0 °C | 10.5 °C | 1.0 °C | 18.0 °C | 6.0 °C | +1.0 °C | – | – | – | – | – | – | –
– | 2390 | 65.8 | 0.24 ± 0.02 nM | COc1ccc2cc3[n+](cc2c1OCCCCCn1cc(-c2ccc(S(N)(=O)=O)cc2)nn1)CCc1cc2c(cc1-3)OCO2 [Compound 32, 10-Methoxy-9-((5–(4-(4-sulfamoylphenyl)-1H-1,2,3-triazol-1-yl)pentyl)oxy)-5,6-dihydro-[1,3]dioxolo[4,5-g]isoquinolino[3,2-a]isoquinolin-7-ium hexafluorophosphate] | 19.0 °C | 6.0 °C | 12.0 °C | 2.5 °C | 13.0 °C | 1.0 °C | -1.0 °C | ≥ 6.0 °C | – | – | – | – | – | –
48.6 ± 2.6 nM | > 205.8 | > 205.8 | – | COc1ccc2cc3[n+](cc2c1OCCCCCn1cc(COc2ccc4ccc(=O)oc4c2)nn1)CCc1cc2c(cc1-3)OCO2 [Compound 39, 10-Methoxy-9-((5–(4-(((2-oxo-2H-chromen-7-yl)oxy)methyl)-1H-1,2,3-triazol-1-yl)pentyl)oxy)-5,6-dihydro-[1,3]dioxolo[4,5-g]isoquinolino[3,2-a]isoquinolin-7-ium hexafluorophosphate] | 20.0 °C | 7.0 °C | 8.5 °C | −1.0 °C | – | >13.0 °C | -1.0 °C | – | – | – | not affected | > 13.0 °C | – | –
– | 1437 | 111.3 | 0.56 ± 0.03 nM | COc1ccc2cc3[n+](cc2c1OCCCn1cc(COc2ccc(S(N)(=O)=O)cc2)nn1)CCc1cc2c(cc1-3)OCO2 [Compound 29, 10-Methoxy-9–(3-(4-((4-sulfamoylphenoxy)methyl)-1H-1,2,3-triazol-1-yl)propoxy)-5,6-dihydro-[1,3]dioxolo[4,5-g]isoquinolino[3,2-a]isoquinolin-7-ium hexafluorophosphate] | 16.0 °C | 3.0 °C | 8.0 °C | −1.5 °C | 16.5 °C | 4.5 °C | -0.5 °C | – | – | – | – | – | – | –
